Data published in ChEMBL document CHEMBL1201862, “PubChem BioAssay data set” (2004).
Values joined by “and” are separate entries in the source; they are usually repeats but may differ in a detail not shown here. Identical values can stand only once.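 Following 48 hours of exposure in 96-well plates, responses at five concentrations were used to interpolate endpoints linearly. Abbreviation: GI50, concentration required for 50% inhibition of growth.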 Active and inactive are the calls of the source. No stated cut-off is given here; in the data, active = GI50 up to about 1.1 µM and inactive = higher. Peptide text beside a SMILES is read from it. * marks the point of attachment. Trt = c1ccc(C(c2ccccc2)(c2ccccc2)*)cc1; Cbz = O=C(OCc1ccccc1)*

Key:
Test in all cases: NCI-60 cell line screen, 48 h
SK-MEL-2 = system: SK-MEL-2
SNB-75 = system: SNB-75
SW-620 = system: SW-620
UO-31 = system: UO-31
UACC-62 = system: UACC-62
EKVX = system: EKVX
HCT-116 = system: HCT-116
OVCAR-4 = system: OVCAR-4
COLO 205 = system: COLO 205
SN12C = system: SN12C
MDA-N = system: MDA-N
HT-29 = system: HT-29
HOP-62 = system: HOP-62
OVCAR-8 = system: OVCAR-8
HCT-15 = system: HCT-15
NCI-H226 = system: NCI-H226
SK-MEL-28 = system: SK-MEL-28
TK-10 = system: TK-10
SK-OV-3 = system: SK-OV-3
HOP-92 = system: HOP-92
OVCAR-3 = system: OVCAR-3
CCRF-CEM = system: CCRF-CEM
NCI-H23 = system: NCI-H23
Malme-3M = system: Malme-3M
HCC 2998 = system: HCC 2998
KM12 = system: KM12
U-251 = system: U-251
SF-295 = system: SF-295
SK-MEL-5 = system: SK-MEL-5
MDA-MB-231 = system: MDA-MB-231
RPMI-8226 = system: RPMI-8226
IGROV-1 = system: IGROV-1
NCI/ADR-RES = system: NCI/ADR-RES
NCI-H522 = system: NCI-H522
OVCAR-5 = system: OVCAR-5
A549 = system: A549
MDA-MB-435 = system: MDA-MB-435
MCF7 = system: MCF7
K562 = system: K562
M14 = system: M14
PC-3 = system: PC-3
A498 = system: A498
SR = system: SR
SNB-19 = system: SNB-19
SF-268 = system: SF-268
NCI-H460 = system: NCI-H460
SF-539 = system: SF-539
CAKI-1 = system: CAKI-1
786-0 = system: 786-0
HL-60 = system: HL-60
MOLT-4 = system: MOLT-4
DU-145 = system: DU-145
ACHN = system: ACHN
RXF 393 = system: RXF 393
Hs-578T = system: Hs-578T
LOX IMVI = system: LOX IMVI
T47D = system: T47D

COc1ccc2c(c1)[n+]([O-])c1ccccc1[n+]2[O-]
GI50 (SK-MEL-2): 26.9 µM (inactive) and 21.8 µM (inactive)
GI50 (SNB-75): 70.1 µM (inactive) and 35.2 µM (inactive)
GI50 (SW-620): 24.7 µM (inactive) and 29.9 µM (inactive)
GI50 (UO-31): 10.3 µM (inactive) and 10.2 µM (inactive)
GI50 (UACC-62): 23.7 µM (inactive) and 18.5 µM (inactive)
GI50 (EKVX): 34 µM (inactive) and 17.5 µM (inactive)
GI50 (HCT-116): 31.5 µM (inactive) and 47.2 µM (inactive)
GI50 (OVCAR-4): 25 µM (inactive)
GI50 (COLO 205): 33.2 µM (inactive) and 19.1 µM (inactive)
GI50 (SN12C): 28.6 µM (inactive) and 21 µM (inactive)
GI50 (MDA-N): 73.8 µM (inactive)
GI50 (HT-29): 29.9 µM (inactive) and 51.5 µM (inactive)
GI50 (HOP-62): 29.1 µM (inactive) and 36.8 µM (inactive)
GI50 (OVCAR-8): 18.5 µM (inactive) and 17.2 µM (inactive)
GI50 (HCT-15): 15.1 µM and 28.2 µM
GI50 (NCI-H226): 26.4 µM (inactive) and 27.2 µM (inactive)
GI50 (SK-MEL-28): 78.7 µM (inactive)
GI50 (TK-10): 34.1 µM (inactive) and 31.5 µM (inactive)
GI50 (SK-OV-3): 24.7 µM (inactive)
GI50 (HOP-92): 47.1 µM (inactive)
GI50 (OVCAR-3): 36.1 µM (inactive) and 44.8 µM (inactive)
GI50 (CCRF-CEM): 22.8 µM (inactive) and 17.9 µM (inactive)
GI50 (NCI-H23): 24.7 µM (inactive) and 37.5 µM (inactive)
GI50 (Malme-3M): 38.7 µM (inactive) and 37.7 µM (inactive)
GI50 (HCC 2998): 29.1 µM (inactive)
GI50 (KM12): 40.5 µM (inactive) and 22.4 µM (inactive)
GI50 (U-251): 22.6 µM (inactive) and 37.4 µM (inactive)
GI50 (SF-295): 21.6 µM (inactive) and 39.8 µM (inactive)
GI50 (SK-MEL-5): 18.4 µM (inactive) and 24.1 µM (inactive)
GI50 (MDA-MB-231): 29.7 µM (inactive) and 37.7 µM (inactive)
GI50 (RPMI-8226): 20.3 µM (inactive) and 19.5 µM (inactive)
GI50 (IGROV-1): 5.9 µM (inactive)
GI50 (NCI/ADR-RES): 29.9 µM (inactive) and 53.3 µM (inactive)
GI50 (NCI-H522): 12.6 µM (inactive) and 14.6 µM (inactive)
GI50 (OVCAR-5): 38.7 µM (inactive) and 65.9 µM (inactive)
GI50 (A549): 11 µM (inactive) and 21.7 µM (inactive)

CC(C)CC(=O)CC(C)[C@]1(CCCOCc2ccccc2)C(=O)N2CCC3(C[C@@]24CCC[C@H]41)OCCO3 (stereo not given in full)
GI50 (SK-MEL-2): > 10 µM (inactive)
GI50 (MDA-MB-435): > 10 µM (inactive)
GI50 (MCF7): > 10 µM (inactive)
GI50 (K562): > 10 µM (inactive)
GI50 (SW-620): > 10 µM (inactive)
GI50 (M14): > 10 µM (inactive)
GI50 (UO-31): > 10 µM (inactive)
GI50 (EKVX): > 10 µM (inactive)
GI50 (OVCAR-4): > 10 µM (inactive)
GI50 (PC-3): > 10 µM (inactive)
GI50 (COLO 205): > 10 µM (inactive)
GI50 (SN12C): > 10 µM (inactive)
GI50 (MDA-N): > 10 µM (inactive)
GI50 (HOP-62): > 10 µM (inactive)
GI50 (A498): > 10 µM (inactive)
GI50 (OVCAR-8): > 10 µM (inactive)
GI50 (SR): > 10 µM (inactive)
GI50 (SNB-19): > 10 µM (inactive)
GI50 (HCT-15): > 10 µM
GI50 (NCI-H226): > 10 µM (inactive)
GI50 (TK-10): > 10 µM (inactive)
GI50 (SF-268): > 10 µM (inactive)
GI50 (SK-OV-3): > 10 µM (inactive)
GI50 (HOP-92): > 10 µM (inactive)
GI50 (OVCAR-3): > 10 µM (inactive)
GI50 (CCRF-CEM): > 10 µM (inactive)
GI50 (NCI-H460): > 10 µM (inactive)
GI50 (NCI-H23): > 10 µM (inactive)
GI50 (SF-539): > 10 µM (inactive)
GI50 (HCC 2998): > 10 µM (inactive)
GI50 (CAKI-1): > 10 µM (inactive)
GI50 (KM12): > 10 µM (inactive)
GI50 (U-251): > 10 µM (inactive)
GI50 (SF-295): > 10 µM (inactive)
GI50 (SK-MEL-5): > 10 µM (inactive)
GI50 (MDA-MB-231): > 10 µM (inactive)
GI50 (RPMI-8226): > 10 µM (inactive)
GI50 (786-0): > 10 µM (inactive)
GI50 (IGROV-1): > 10 µM (inactive)
GI50 (HL-60): > 10 µM (inactive)
GI50 (NCI/ADR-RES): > 10 µM (inactive)
GI50 (NCI-H522): > 10 µM (inactive)
GI50 (MOLT-4): > 10 µM (inactive)
GI50 (OVCAR-5): > 10 µM (inactive)

COC(=O)C(CO)NC(=O)C(CSC(c1ccccc1)(c1ccccc1)c1ccccc1)NC(=O)OCc1ccccc1 (stereo not given) (Cbz-Cys(Trt)-Ser-OMe; configuration not given here)
GI50 (SK-MEL-2): 16.9 µM (inactive)
GI50 (DU-145): 19.1 µM (inactive)
GI50 (MDA-MB-435): 15.2 µM (inactive)
GI50 (SNB-75): 17.6 µM (inactive)
GI50 (MCF7): 14.8 µM (inactive)
GI50 (K562): 15.3 µM (inactive)
GI50 (ACHN): 21.2 µM (inactive)
GI50 (SW-620): 15.5 µM (inactive)
GI50 (M14): 19.4 µM (inactive)
GI50 (UO-31): 14.5 µM (inactive)
GI50 (RXF 393): 8.91 µM (inactive)
GI50 (Hs-578T): 18.5 µM (inactive)
GI50 (UACC-62): 12.1 µM (inactive)
GI50 (EKVX): 16 µM (inactive)
GI50 (HCT-116): 12.3 µM (inactive)
GI50 (OVCAR-4): 20.6 µM (inactive)
GI50 (PC-3): 12.3 µM (inactive)
GI50 (COLO 205): 15.6 µM (inactive)
GI50 (SN12C): 13.3 µM (inactive)
GI50 (HT-29): 11.4 µM (inactive)
GI50 (HOP-62): 17.3 µM (inactive)
GI50 (OVCAR-8): 14.5 µM (inactive)
GI50 (LOX IMVI): 15.7 µM (inactive)
GI50 (T47D): 20.7 µM (inactive)
GI50 (SR): 0.158 µM (active)
GI50 (SNB-19): 19.5 µM (inactive)
GI50 (HCT-15): 19.2 µM
GI50 (NCI-H226): 12.2 µM (inactive)
GI50 (SK-MEL-28): 17 µM (inactive)
GI50 (TK-10): 24.5 µM (inactive)
GI50 (SF-268): 17.7 µM (inactive)
GI50 (SK-OV-3): 24.6 µM (inactive)
GI50 (HOP-92): 15.2 µM (inactive)
GI50 (OVCAR-3): 13.6 µM (inactive)
GI50 (CCRF-CEM): 0.0398 µM (active)
GI50 (NCI-H460): 8.81 µM (inactive)
GI50 (NCI-H23): 17.9 µM (inactive)
GI50 (SF-539): 12.1 µM (inactive)
GI50 (Malme-3M): 14.5 µM (inactive)
GI50 (HCC 2998): 14.9 µM (inactive)
GI50 (CAKI-1): 16.6 µM (inactive)
GI50 (KM12): 16.1 µM (inactive)
GI50 (U-251): 16.7 µM (inactive)
GI50 (SF-295): 17.1 µM (inactive)
GI50 (SK-MEL-5): 15.1 µM (inactive)
GI50 (MDA-MB-231): 13.8 µM (inactive)
GI50 (RPMI-8226): 0.36 µM (active)
GI50 (786-0): 20.9 µM (inactive)
GI50 (IGROV-1): 16.8 µM (inactive)
GI50 (HL-60): 5.75 µM (inactive)
GI50 (NCI/ADR-RES): 16.8 µM (inactive)
GI50 (NCI-H522): 15.5 µM (inactive)
GI50 (MOLT-4): 0.61 µM (active)
GI50 (OVCAR-5): 17.7 µM (inactive)
GI50 (A549): 13.4 µM (inactive)
